# Source: PubChem BioAssay AID179 (DTP/NCI, 2004)
# Calls of active or inactive are those of the source.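 The calls were made as follows: active = compounds giving half or more protection of infected cells from virus-caused growth loss, again on retest; inactive = the rest.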
# Test system: CEM cells HIV-1 protection, formazan growth assay
# Assay: NCI AIDS Antiviral Assay
# Details: for IC50: measured here: growth of uninfected CEM cells
# Procedure, shortened: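 Human CEM cells, uninfected and HIV-1-infected, received five drug concentrations, and growth was read by soluble formazan assay. Compounds giving at least 50% protection were retested; reproducible 100% protection defined confirmed active.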
SMILES,EC50 [µM],IC50 [µM],outcome
Cc1nnc(N)nc1C/C=C/C(Sc1ccc(Cl)cc1)c1ccccc1 (stereo unspecified),> 9.77,3.98,
CCC(C)C(CC)C(N)=O (stereo unspecified),> 200,> 200,
CCCCCCCCCCCCNP(=S)(NCCCCCCCCCCCC)NCCCCCCCCCCCC,> 100,> 100,
O=C1OC(=O)C2C1C(c1ccccc1)N1C3C(=O)OC(=O)C3C(c3ccccc3)N21 (stereo unspecified),,,inactive
Nc1nc(NCCOCP(=O)(O)O)c(N)c(=O)[nH]1,> 200,> 200,
O=C(O)C1=CC=CC(=C(c2ccc(O)c(C(=O)O)c2)c2ccc(O)c(C(=O)O)c2)C1=O,> 380,> 380,
Cc1cnc2c(c1)C(=O)N(c1ccc(Br)cc1)S2(=O)=O,> 200,58.9,
O=C1Nc2ncnn2C1=O,> 52.5,> 52.5,
CN1C2(c3ccccc3)c3c(-c4ccccc4)sc(-c4ccccc4)c3C1(c1ccccc1)C1C(=O)N(c3ccccc3)C(=O)C12 (stereo unspecified),,,inactive
O=C(/C=C/c1ccc(OCCCCCCCCCCOc2ccc(/C=C/C(=O)c3ccc(Cl)cc3)cc2)cc1)c1ccc(Cl)cc1,> 4.17,> 4.17,
CCCCCC1c2c(cc(C)[nH]c2=O)OC(O)C1CCCC (stereo unspecified),> 126,> 126,
CCn1c(=O)c2c3cc(OC(C)=O)ccc3oc2c2ccc(OC(C)=O)cc21,> 200,53.7,
C/C=C(\C)C(=O)c1c(O)cc(O)c2ccc(=O)oc12,> 200,112,
O=C1Oc2ccccc2C(=O)/C1=C1/C=C(c2ccccc2)SS1,> 200,> 200,
CC1(C)CN2Cc3cccc(n3)CN(CC(C)(C)[N-]C(=O)C(C)(OCc3ccccc3)C2)CC(C)(OCc2ccccc2)C(=O)[N-]1.[Cu+2] (stereo unspecified),> 200,117,
Cc1ccc(C)c(COCCOCn2ccc(N)nc2=O)c1,> 200,> 200,
CC(=O)CC(=O)N1CCOC1=O,> 200,36.3,
CN(C)c1ccc(/C=C/c2ccc3ccccc3[n+]2C)cc1,0.0631,0.398,

SMILES,EC50 [µM],IC50 [µM],outcome
N#CCc1c(C2(c3ccncc3)OCCO2)[nH]c2ccccc12,> 117,110,
CCOC(=O)c1ccc(CS(=O)c2ccc(N)cc2)c([N+](=O)[O-])c1 (stereo unspecified),> 102,26.9,
O=c1ccc(=O)c2c1c1[nH]c3ccccc3c1c1c(=O)c3ccccc3c(=O)c21,> 200,18.6,
O=S(=O)(NCCSSCCNS(=O)(=O)c1ccc2ccccc2c1)c1ccc2ccccc2c1,> 200,64.6,
CC1C=CN(N(C)C)C2=C1C(=O)c1cnccc1C2=O (stereo unspecified),> 20,1.23,
CCOC(=O)C(C)(C)Oc1ccc(Cl)cc1,> 200,> 200,
CSC(=Nc1ccccc1)c1c(C)[nH]n(-c2ccccc2)c1=O,> 200,126,
Cc1cn(COCCN2C(=O)c3ccccc3C2=O)c(=O)[nH]c1=O,> 200,> 200,
Nc1ccn(CCOC(=O)c2ccccc2)c(=O)n1,> 52.5,> 52.5,
CN(C)C(=Nc1ccc(NC(=O)c2ccc(C(=O)Nc3ccc(N=C(Nc4ccccc4)N(C)C)cc3)cc2)cc1)Nc1ccccc1,,,inactive
COc1cc(C2NCCC(c3ccccc3)(c3ccccc3)N2)cc(OC)c1OC (stereo unspecified),> 200,19.5,
O=C(O)CSCc1cc(C(=O)Nc2ccc(/C=C/c3ccc(NC(=O)c4cc(CSCC(=O)O)c5cccnc5c4O)cc3S(=O)(=O)O)c(S(=O)(=O)O)c2)c(O)c2ncccc12,0.832,22.4,
N#CCN1CCN(CC#N)CCN(CC#N)CCN(CC#N)CC1,> 200,28.2,
COc1cc(OC)c2nc3ccccc3c(NCCCN(C)C)c2c1[N+](=O)[O-],> 200,20,
O=C1C(c2ccccc2)=[N+]([O-])c2ccccc21,,,inactive
COC(=O)C(Cc1ccccc1)NC(=O)Cn1ccnc1[N+](=O)[O-] (stereo unspecified),> 759,132,
Cc1cc2occ(C)c(=O)c2c2c1OC(C)(C)S2,> 100,51.3,
